Details of data set [1]: method as in PMID 28680091. The note with it: cited from earlier work.
Data set [2] deals with HepG2 cells. The data set is described as follows: Cell cycle by flow cytometry (PI). It is filed as cell-based. The note with it: 5 μg/mL tanshinone IIA equivalent, 24 h, control 28.98%. The method, then:
The test method was performed according to the method provided with the apoptosis test until two centrifugations were completed, and the supernatant was discarded. Next, 1 mL of ice bath precooled 70% ethanol was added to fix the cells for 24 h at 4°C, then, the fixed cells were centrifuged at 1000×g for 5 min ([36]). After resuspending the cells, the cells were centrifuged and precipitated again, and the supernatant was discarded. A total of 500 μL PI staining solution was added to the cells, and the cells were slowly and sufficiently resuspended and bathed for 30 min in the dark at 37°C. Flow cytometry was completed within 24 h after staining ([37]).
In general terms: Flow cytometry measures light scatter and fluorescence of single cells or particles in a stream.

The nature of data set [3]: Pharmacokinetics after tail vein injection. The data set is classed as in vivo. The following applies: SD rats. As to the method:
Twelve male SD rats (weighing 200–250 g) were randomly divided into three groups. Rats were fasted for 12 h but drank water freely before administration ([38]). The first, second, and third groups were injected with Free TanIIA, TanIIA-NSVs, and Gal-pH-TanIIA-NSVs at an equivalent tanshinone IIA dose of 10 mg/kg via tail vein, respectively. Orbital blood was taken at 0.083, 0.25, 0.5, 1, 2, 4, 6, 8, 12, and 24 h after administration. Blood was transferred to a centrifuge tube coated with heparin sodium and centrifuged at 9391.2×g for 5 min to prepare plasma that was stored at −20°C ([39]).
After treatment of plasma and tissue homogenate, the obtained supernatant was concentrated by nitrogen blowing and determined by HPLC.

On the set-up of data set [4]: method as in PMID 28680091. The note with it: cited from earlier work. This is another data set of the same source.
The nature of data set [5]: Biodistribution after tail vein injection. It is filed as in vivo. The following applies: SD rats, 10 mg/kg, all time periods tested (0.083, 4, 12 h). The method, then:
Twenty-seven male SD rats were randomly divided into three groups and administered in the same way. Rats were sacrificed after 0.083, 4, and 12 h, respectively, and heart, liver, spleen, lung, and kidney tissues were collected immediately. Any residual blood on the tissue was washed with precooled normal saline, and the washed tissue was blotted up with filter paper and weighed. The tissue was then homogenized in 5 times the mass of precooled normal saline. Homogenized tissue samples were centrifuged at 9391.2×g for 5 min to separate the tissue homogenate and were stored at −20°C ([39]). After treatment of plasma and tissue homogenate, the obtained supernatant was concentrated by nitrogen blowing and determined by HPLC.

Data set [6] deals with A2780 cells. The data set is described as follows: CCK8 cell viability assay. The data set is classed as cell-based. The following applies: Homo sapiens, 24 h, equivalent tanshinone IIA dose. As to the method: (§1) A2780, HCT8, HepG2, and Huh7 cells were seeded in 96-well plates at a density of 4 × 10^4 cells per well for 24 h ([32]) and treated with complete medium containing a series of blank niosomes (NSVs, Gal-NSVs, pH-NSVs, Gal-pH-NSVs) for 24 h. Subsequently, the culture medium was discarded, and CCK8 solution was added to the cells. Then, cells were continuously cultured for 2 h at 37°C. The absorbance value of each well was measured at 450 nm by a microplate spectrophotometer (BIO-RAD xMark, USA). The control group and blank group were included in the experiment. […] Cell viability was calculated according to the following formula ([33]): Cell viability%=Atest−Ao/Acontrast−Ao×100%
(§2) In the formula, Atest is the absorbance value of the test group, Acontrast is the absorbance value of the control group, and A0 is the absorbance value of the blank group.
(§3) A2780, HCT8, HepG2, and Huh7 cells were seeded in 96-well plates for 24 h and treated with serial concentrations of tanshinone IIA solution (Free TanIIA) and tanshinone IIA-loaded niosomes (TanIIA-NSVs, Gal-TanIIA-NSVs, pH-TanIIA-NSVs, Gal-pH-TanIIA-NSVs) at an equivalent tanshinone IIA dose for 24 h. Then, the culture medium was discarded, CCK8 solution was added to the cells, and cells were continuously cultured for 2 h at 37°C. The absorbance value of each well was measured at 450 nm by a microplate spectrophotometer ([33]).
On the technique in general: Formazan colour is commonly taken as a measure of viable cells.

The subject of data set [7] is Huh7 cells. Put plainly: CCK8 cell viability assay. It is filed as cell-based. The following applies: Homo sapiens, Huh-7, 24 h, equivalent tanshinone IIA dose. The method, then:
as §1, §2, §3

The subject of data set [8] is HepG2 cells. The data set is described as follows: CCK8 cell viability assay. The data set is classed as cell-based. The following applies: Homo sapiens, 24 h, equivalent tanshinone IIA dose. As to the method:
as §1, §2, §3

In data set [9] the test system is HCT8 cells. The data set is described as follows: CCK8 cell viability assay. The note with it: Homo sapiens, HCT-8, 24 h, equivalent tanshinone IIA dose. The data set is classed as cell-based. The method, then: as §1, §2, §3
Data set [10] deals with HepG2 cells. Put plainly: Cell apoptosis by flow cytometry (Annexin V-FITC/PI). It is filed as cell-based. The following applies: 5 μg/mL tanshinone IIA equivalent, 24 h, control 57.33%. As to the method: HepG2 cells were seeded in 6-well plates at a density of 2 × 10^5 cells per well for 24 h and treated with tanshinone IIA solution (Free TanIIA) and tanshinone IIA-loaded niosomes (TanIIA-NSVs, Gal-pH-TanIIA-NSVs) at an equivalent tanshinone IIA dose of 5 μg/mL for 24 h. Another group was treated with PBS for the same duration as the control group. After incubation, the cell culture medium was transferred to a 2-mL centrifuge tube, and cells digested by a trypsin-EDTA solution were added to the cell culture medium collected previously. Subsequently, the cells were mixed, transferred to a centrifuge tube, and centrifuged at 1000×g for 5 min ([34]). The supernatant was discarded, and the cells were gently resuspended with PBS and counted. A certain amount of resuspended cells were centrifuged in a similar fashion, the supernatant was discarded (PBS was removed), and 500 μL of binding buffer was added. Then, the cells were gently resuspended, and 5 μL Annexin V-FITC was added. After mixing, 5 μL propidium iodide (PI) staining solution was added to the cells, gently mixed, and incubated for 10 min in the dark at room temperature (20–25°C). Flow cytometry was then performed ([35]).

Where [11] appears, read: 10 mg/kg tanshinone IIA equivalent, tail vein.

Read-outs that look alike come from different tables or passages of the source.

The term half-life denotes how long it takes for the measured level to halve. Usually IC50 stands for the midpoint of a concentration-inhibition curve. Consider `Cc1coc2c1C(=O)C(=O)c1c-2ccc2c1CCCC2(C)C` [Free TanIIA, Tanshinone IIA], for which, in [1], the Solubility in water entry was “insolubility in water”. The S phase distribution in data set [2] turned out to be 50.53%. Moreover, in [3] (12 h after injection, 10 mg/kg), the “Plasma concentration by HPLC” value is “could not be detected”. The “AUC0–t” value in data set [3] (setting [11]) is 7.70 ± 1.51 (μg/mL)·h. In data set [3] (setting [11]), the “AUC0–∞” value was 8.81 ± 1.65 (μg/mL)·h. Further, the CL in [3] (setting [11]) is 0.284 ± 0.026 (mg)/(μg/mL)/h. Further, the Vd in data set [3] (setting [11]) was 1.26 ± 0.09 (mg)/(μg/mL). The half-life in data set [3] (male, rat, plasma, iv, 10 mg/kg tanshinone IIA equivalent, tail vein) is 3.09 ± 0.59 h; in [4], “short half-life”. The MRT last in data set [3] (male, rat, plasma, iv, 10 mg/kg tanshinone IIA equivalent, tail vein, read-out: MRT0–t) is 2.23 ± 0.2 h. In [3] (male, rat, plasma, iv, 10 mg/kg tanshinone IIA equivalent, tail vein, read-out: MRT0–∞), the MRT inf is 3.53 ± 0.63 h. Moreover, the “Drug level in kidney tissue” value in [5] is “relatively high drug levels”. The IC50 in data set [6] was 2.44 µg/mL; in data set [7], 2.5 µg/mL; in data set [8], 2.26 µg/mL; in data set [9], 2.42 µg/mL. The “Apoptotic rate (early + late apoptosis)” value in data set [10] came out at 78.34%.

The values above are taken from publication PMC7946689, “Galactose-Modified PH-Sensitive Niosomes for Controlled Release and Hepatocellular Carcinoma Target Delivery of Tanshinone IIA” (AAPS PharmSciTech, 2021).
